Test results reported in US20240000724A1, “Compositions and Methods for Treatment or Prevention of Oral Mucositis” (PATHWAYS BIOSCIENCE, LLC, priority 2015, published 2024).

Tested on: Nrf2 (HepG2 cells)
Assay: Nrf2 induction by PB201 analogs in HepG2 Nrf2/ARE promoter-luciferase reporter cells
Format: cell-based, human
Details: 0-7 ug/mL, read 24 h after start of stimulation
Description: In this Example, the effects of compounds that are structurally related to 1,3-diphenyl-1,3-propanedione are investigated.

SMILES	Nrf2 activation
O=C(CCCC(=O)c1ccccc1)c1ccccc1 [1,3-dibenzoylpropane]	activated Nrf2
O=C(c1ccccc1)C(Br)C(=O)c1ccccc1 [2-bromo-1,3-diphenyl-1,3-propanedione]	activated Nrf2
